Tests used:
[1] = target: recombinant HCV NS3 protease, genotype 1a (Hepatitis C virus genotype 1a, UniProt P27958); test: biochemical; settings: genotype 1a NS3 protease; read-out: IC50 in a 1a enzyme assay
HLM stability = format: in vitro ADME
[2] = target: recombinant HCV NS3 protease, genotype 1b (Hepatitis C virus genotype 1b, UniProt Q9WMX2); test: biochemical; settings: genotype 1b NS3 protease; read-out: IC50 in a 1b enzyme assay
[3] = system: HCV genotype 1a replicon (1a-H77); test: microbe, parasite or virus in culture; format: cell-based; settings: Hepatitis C virus, read-out: EC50 in a replicon cell line assay in a 1a-H77 background
[4] = system: HCV genotype 1b replicon (1b-Con-1); test: microbe, parasite or virus in culture; format: cell-based; settings: Hepatitis C virus, read-out: EC50 in a replicon cell line assay in a 1b-con1 background

Chain of recombinant HCV NS3 protease, genotype 1a (P27958 1027-1657, other chains not shown): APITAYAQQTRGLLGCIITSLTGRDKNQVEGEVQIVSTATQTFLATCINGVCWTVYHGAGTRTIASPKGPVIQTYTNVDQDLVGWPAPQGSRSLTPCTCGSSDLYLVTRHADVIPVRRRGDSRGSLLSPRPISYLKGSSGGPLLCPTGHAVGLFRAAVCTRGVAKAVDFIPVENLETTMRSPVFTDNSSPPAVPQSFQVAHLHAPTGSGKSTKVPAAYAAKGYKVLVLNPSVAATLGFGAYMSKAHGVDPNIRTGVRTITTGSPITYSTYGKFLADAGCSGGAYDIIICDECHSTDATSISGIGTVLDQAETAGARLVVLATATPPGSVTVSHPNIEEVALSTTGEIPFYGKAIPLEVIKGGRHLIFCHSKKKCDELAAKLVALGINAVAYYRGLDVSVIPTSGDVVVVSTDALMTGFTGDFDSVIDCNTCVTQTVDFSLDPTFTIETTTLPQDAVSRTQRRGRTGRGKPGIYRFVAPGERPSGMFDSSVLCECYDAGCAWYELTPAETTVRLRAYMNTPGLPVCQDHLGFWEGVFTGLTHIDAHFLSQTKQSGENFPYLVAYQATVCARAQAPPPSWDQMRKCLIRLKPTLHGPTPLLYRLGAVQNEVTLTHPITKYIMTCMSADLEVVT
Chain of recombinant HCV NS3 protease, genotype 1b (Q9WMX2 1027-1657, other chains not shown): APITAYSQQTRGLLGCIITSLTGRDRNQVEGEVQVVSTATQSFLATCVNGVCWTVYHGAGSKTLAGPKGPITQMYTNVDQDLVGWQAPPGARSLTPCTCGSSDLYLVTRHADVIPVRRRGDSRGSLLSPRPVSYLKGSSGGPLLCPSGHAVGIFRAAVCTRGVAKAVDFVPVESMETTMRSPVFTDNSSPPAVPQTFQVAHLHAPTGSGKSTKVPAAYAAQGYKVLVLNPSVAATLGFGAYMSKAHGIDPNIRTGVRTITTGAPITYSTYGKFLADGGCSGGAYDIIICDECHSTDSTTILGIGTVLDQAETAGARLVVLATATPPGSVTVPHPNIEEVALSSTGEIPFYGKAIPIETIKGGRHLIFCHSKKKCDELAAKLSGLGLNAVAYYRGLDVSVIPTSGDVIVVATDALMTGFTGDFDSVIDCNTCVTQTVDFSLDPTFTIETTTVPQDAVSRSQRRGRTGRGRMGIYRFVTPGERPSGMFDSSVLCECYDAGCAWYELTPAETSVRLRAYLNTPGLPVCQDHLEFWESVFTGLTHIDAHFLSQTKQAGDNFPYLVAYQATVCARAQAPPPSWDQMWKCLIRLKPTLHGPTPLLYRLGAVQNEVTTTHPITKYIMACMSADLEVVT

| SMILES | IC50 [1] [nM] | HLM stability value (HLM stability) [µL/min/mg] | IC50 [2] [nM] | EC50 [3] [nM] | EC50 [4] [nM] |
| --- | --- | --- | --- | --- | --- |
| CCc1nc2ccccc2nc1O[C@@H]1C[C@H]2C(=O)N[C@]3(C(=O)NS(=O)(=O)C4CC4)C[C@H]3CC(F)(F)CCCCC[C@H](NC(=O)c3ccon3)C(=O)N2C1 [Example 11, N-((2R,6S ,13aS,14aR,16aS)-14a-(cyclopropylsulfonylcarbamoyl)-2-(3-ethylquinoxalin-2-yloxy)-12,12-difluoro-5,16-dioxooctadecahydrocyclopropa[e]pyrrolo[1,2-a][1,4]diazacyclopentadecin-6-yl)isoxazole-3-carboxamide] | 0.1 to 0.5 | < 50 | 0.1 to 0.5 | > 5 | 2 to 5 |
| CCc1nc2ccccc2nc1O[C@@H]1C[C@H]2C(=O)N[C@]3(C(=O)NS(=O)(=O)C4CC4)C[C@H]3CC(F)(F)CCCCC[C@H](NC(=O)OC(C)(C)C)C(=O)N2C1 [Example 7, tert-butyl (2R,6S,13aS,14aR,16aS)-14a-(cyclopropylsulfonylcarbamoyl)-2-(3-ethylquinoxalin-2-yloxy)-12,12-difluoro-5,16-dioxooctadecahydrocyclopropa[e]pyrrolo [1,2-a][1,4]diazacyclopentadecin-6-ylcarbamate] | 0.5 to 1 | > 100 | 0.1 to 0.5 | 2 to 5 | 1 to 2 |
| CCc1nc2ccccc2nc1O[C@@H]1C[C@H]2C(=O)N[C@]3(C(=O)NS(=O)(=O)C4(C)CC4)C[C@H]3CC(F)(F)CCCCC[C@H](NC(=O)c3cc(C)on3)C(=O)N2C1 [Example 10, N-((2R,6S,13aS,14aR,16aS)-2-(3-ethylquinoxalin-2-yloxy)-12,12-difluoro-14a-(1-methylcyclopropylsulfonylcarbamoyl)-5,16-dioxooctadecahydrocyclopropa[e]pyrrolo [1,2-a][1,4]diazacyclopentadecin-6-yl)-5-methylisoxazole-3-carboxamide] | – | < 50 | – | 2 to 5 | 1 to 2 |
| CCc1nc2ccccc2nc1O[C@@H]1C[C@H]2C(=O)N[C@]3(C(=O)NS(=O)(=O)C4CC4)C[C@H]3CC(F)(F)CCCCC[C@H](NC(=O)c3cc(C)on3)C(=O)N2C1 [Example 9, N-((2R,6S ,13aS,14aR,16aS)-14a-(cyclopropylsulfonylcarbamoyl)-2-(3-ethylquinoxalin-2-yloxy)-12,12-difluoro-5,16-dioxooctadecahydrocyclopropa[e]pyrrolo[1,2-a][1,4]diazacyclopentadecin-6-yl)-5-methylisoxazole-3-carboxamide] | 0.5 to 1 | < 50 | 0.1 to 0.5 | 2 to 5 | 1 to 2 |
| Cc1cc(C(=O)N[C@H]2CCCCCC(F)(F)C[C@@H]3C[C@@]3(C(=O)NS(=O)(=O)C3CC3)NC(=O)[C@@H]3C[C@@H](Oc4nc5ccccc5nc4-c4nc5ccccc5s4)CN3C2=O)no1 [Example 14, N-((2R,6S,13aS,14aR,16aS)-2-(3-(benzo[d]thiazol-2-yl)quinoxalin-2-yloxy)-14a-(cyclopropylsulfonylcarbamoyl)-12,12-difluoro-5,16-dioxooctadecahydrocyclopropa[e]pyrrolo [1,2-a][1,4]diazacyclopentadecin-6-yl)-5-methylisoxazole-3-carboxamide] | 0.1 to 0.5 | < 50 | 0.1 to 0.5 | 2 to 5 | 1 to 2 |
| CCc1nc2ccccc2nc1O[C@@H]1C[C@H]2C(=O)N[C@]3(C(=O)NS(=O)(=O)C4(C)CC4)C[C@H]3CC(F)(F)CCCCC[C@H](NC(=O)OC(C)(C)C)C(=O)N2C1 [Example 8, tert-butyl (2R,6S ,13aS,14aR,16aS)-2-(3-ethylquinoxalin-2-yloxy)-12,12-difluoro-14a-(1-methylcyclopropylsulfonylcarbamoyl)-5,16-dioxooctadecahydrocyclopropa[e]pyrrolo[1,2-a][1,4]diazacyclopentadecin-6-ylcarbamate] | 0.1 to 0.5 | > 100 | 0.1 to 0.5 | 2 to 5 | 1 to 2 |
| Cc1nc2ccccc2nc1O[C@@H]1C[C@H]2C(=O)N[C@]3(C(=O)NS(=O)(=O)C4CC4)C[C@H]3CC(F)(F)CCCCC[C@H](NC(=O)OC(C)(C)C)C(=O)N2C1 [Example 3, tert-butyl (2R,6S,13aS,14aR,16aS)-14a-(cyclopropylsulfonylcarbamoyl)-12,12-difluoro-2-(3-methylquinoxalin-2-yloxy)-5,16-dioxooctadecahydrocyclopropa[e]pyrrolo[1,2-a][1,4]diazacyclopentadecin-6-ylcarbamate] | 0.1 to 0.5 | – | 0.1 to 0.5 | – | – |
| CC(C)(C)OC(=O)N[C@H]1CCCCCC(F)(F)C[C@@H]2C[C@@]2(C(=O)NS(=O)(=O)C2CC2)NC(=O)[C@@H]2C[C@@H](Oc3nc4ccccc4c4ccccc34)CN2C1=O [Example 19, tert-butyl (2R,6S,13aS,14aR,16aS)-14a-(cyclopropylsulfonylcarbamoyl)-12,12-difluoro-5,16-dioxo-2-(phenanthridin-6-yloxy)octadecahydrocyclopropa[e]pyrrolo[1,2-a][1,4]diazacyclopentadecin-6-ylcarbamate] | < 0.1 | > 100 | < 0.1 | < 1 | < 1 |
| CCc1nc2ccccc2nc1O[C@@H]1C[C@H]2C(=O)N[C@]3(C(=O)NS(=O)(=O)C4CC4)C[C@H]3CC(F)(F)CCCCC[C@H](NC(=O)C(C)(C)C)C(=O)N2C1 [Example 12, (2R,6S,13aS,14aR,16a5)-N-(cyclopropylsulfonyl)-2-(3-ethylquinoxalin-2-yloxy)-12,12-difluoro-5,16-dioxo-6-pivalamidooctadecahydrocyclopropa[e]pyrrolo[1,2-a][1,4]diazacyclopentadecine-14a-carboxamide] | 0.5 to 1 | < 50 | 0.5 to 1 | > 5 | > 5 |
| Cn1ccc(C(=O)N[C@H]2CCCCCC(F)(F)C[C@@H]3C[C@@]3(C(=O)NS(=O)(=O)C3CC3)NC(=O)[C@@H]3C[C@@H](Oc4nc5ccccc5nc4-c4cc5ccccc5o4)CN3C2=O)n1 [Example 17, (2R,6S,13aS,14aR,16aS)-2-(3-(benzofuran-2-yl)quinoxaline-2-yloxy)-N-(cyclopropylsulfonyl)-12,12-difluoro-6-(1-methyl-1H-pyrazole-3-carboxamido)-5,16-dioxooctadecahydrocyclopropa[e]pyrrolo [1,2-a][1,4]diazacyclopentadecine-14a-carboxamide] | 0.1 to 0.5 | < 50 | < 0.1 | – | – |
| Cc1cc(C(=O)N[C@H]2CCCCCC(F)(F)C[C@@H]3C[C@@]3(C(=O)NS(=O)(=O)C3CC3)NC(=O)[C@@H]3C[C@@H](Oc4nc5ccccc5c5ccccc45)CN3C2=O)no1 [Example 18, N-((2R,6S,13aS,14aR,16aS)-14a-(cyclopropylsulfonylcarbamoyl)-12,12-difluoro-5,16-dioxo-2-(phenanthridin-6-yloxy)octadecahydrocyclopropa[e]pyrrolo[1,2-a][1,4]diazacyclopentadecin-6-yl)-5-methylisoxazole-3-carboxamide] | – | – | – | < 1 | < 1 |
| CC(C)(C)OC(=O)N[C@H]1CCCCCC(F)(F)C[C@@H]2C[C@@]2(C(=O)NS(=O)(=O)C2CC2)NC(=O)[C@@H]2C[C@@H](Oc3cnc4ccccc4n3)CN2C1=O [Example 1, tert-butyl(2R,6S,13aS,14aR,16aS)-14a-(cyclopropylsulfonylcarbamoyl)-12,12-difluoro-5,16-dioxo-2-(quinoxalin-2-yloxy)octadecahydrocyclopropa[e]pyrrolo[1,2-a][1,4]diazacyclopentadecin-6-ylcarbamate] | > 1 | 50 to 100 | > 1 | – | – |

From US8937041B2, “Macrocyclic hepatitis C serine protease inhibitors” (AbbVie, Inc., priority 2010, dated 2015)
